From US12486276B2, “5-(2,5-difluorophenyl)pyrrolidin-1-yl)-3-(1H-pyrazol-1-yl)pyrazolo[1,5-a]pyrimidine derivatives and related compounds as Trk kinase inhibitors for treating cancer” (Pyramid Biosciences, Inc., priority 2017, dated 2025)

Biological target: T1, TrkA kinase domain (Homo sapiens, UniProt P04629)
T1 construct: TrkA kinase domain was supplied by SignalChem; purchased SignalChem
Experiment: TrkA Kinase Assay (Trk kinase biochemical assay)
Settings: 33 pM TrkA, 100 nM peptide substrate, 10 µM ATP; 15 minute preincubation; read-out: TrkA WT IC50
Procedure: Example 33: TrkA Kinase Assay Protocol
TrkA kinase domain was supplied by SignalChem. Ulight PolyGT peptide substrate and Europium labeled W1024 antiphosphotyrosine antibody were supplied by Perkin Elmer. Assay buffer contained 50 mM HEPES, 10 mM MgCb, 1 mM EGTA, 2 mM DTT, 0.1 mg/mL BSA, and 0.005% w/v tween 20, pH 7.5. Enzyme dilution buffer was made by supplementing assay buffer with 25% w/v glycerol. Antibody dilution buffer contained 20 mM Tris, 137 mM NaCl, and 0.05% w/v tween 20, pH 8.0. Buffers were prepared at room temperature. Enzyme solutions were made on ice, while other solutions were made at room temperature and all subsequent assay steps were performed at room temperature. The TrkA stock solution (0.1 mg/mL) was diluted 156× in enzyme dilution buffer and then 100× in assay buffer. Five pL/well of enzyme solution was added to the assay plate (Greiner black 384-well nonbinding plate), with buffer containing no enzyme added to negative control wells. Test compounds were serially diluted in DMSO at 300× final assay concentration. One μL of each test compound dilution was mixed with 99 pL assay buffer plus ATP (30 μM) and five pL of each test compound-ATP solution was added to w¾13s containing enzyme. Positive control wells contained enzyme and substrates but no test compounds. After a 15 minute enzyme-test compound preincubation, five pL of substrate diluted in assay buffer was added to all wells. Final assay concentrations were 33 pM TrkA, 100 nM peptide substrate, and […]. After a five minute reaction, five pL of 80 mM EDTA was added, followed five minutes later by five pL two nM antibody solution. The ratio of fluorescence at 665 nm vs. 615 nM in each well was determined using a Tecan Infinite Pro F200 plate reader. For each test compound well, percent inhibition w % s calculated (% inliib. =100-100*(test value-neg. control)/(pos. control-neg. control)). Percent inhibition values were fit to a four parameter logistic to determine ICso values for each test compound.

T1 sequence (P04629 510-781 limits assumed): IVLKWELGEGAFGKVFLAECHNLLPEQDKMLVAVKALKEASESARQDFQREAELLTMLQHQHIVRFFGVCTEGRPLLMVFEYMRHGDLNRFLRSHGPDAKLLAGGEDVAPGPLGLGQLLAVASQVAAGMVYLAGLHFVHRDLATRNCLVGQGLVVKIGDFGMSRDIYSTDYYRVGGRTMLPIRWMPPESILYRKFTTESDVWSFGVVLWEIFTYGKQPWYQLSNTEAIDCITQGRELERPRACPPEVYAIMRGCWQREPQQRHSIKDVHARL

SMILES | IC50 [nM]
Fc1ccc(F)c([C@H]2CCCN2c2ccn3ncc(-n4cc(C(F)(F)F)cn4)c3n2)c1 [I-147] | < 10
Cc1cn(-c2cnn3ccc(N4CCC[C@@H]4c4cc(F)ccc4F)nc23)nc1C [I-150] | < 10
Cc1nn(-c2cnn3ccc(N4CCC[C@@H]4c4cc(F)ccc4F)nc23)cc1-c1ccccc1 [I-151] | < 10
Fc1ccc(F)c([C@H]2CCCN2c2ccn3ncc(-n4cccn4)c3n2)c1 [I-152, (R)-5-(2-(2,5-difluorophenyI)pyrroIidin-1-yl)-3-(1H-pyrazol-1-yl)pyrazolo[1,5-a]pyrimidine] | < 10
Cc1cnn(-c2cnn3ccc(N4CCC[C@@H]4c4nc(F)ccc4F)nc23)c1 [I-154, (R)-5-(2-(3,6-difluoropyridin-2-yl)pyrrolidin-1-yl)-3-(4-methyl-1H-pyrazol-1-yl)pyrazolo[1,5-a]pyrimidine] | < 10
OCCc1cnn(-c2cnn3ccc(N4CCC[C@@H]4c4cc(F)ccc4F)nc23)c1 [I-156] | < 10
Cc1noc(C)c1-c1cnn(-c2cnn3ccc(N4CCC[C@@H]4c4cc(F)ccc4F)nc23)c1 [I-157, (R)-4-(1-(5-(2-(2,5-difluorophenyl)pyrrolidin˜yl)pyrazolo[,5-a]pyrimidin-3-yl)-1H-pyrazol-4-yl)-3,5-dimethylisoxazole] | < 10
COc1cc(C)nn1-c1cnn2ccc(N3CCC[C@@H]3c3cc(F)ccc3F)nc12 [I-166] | > 500
COc1cc(C)n(-c2cnn3ccc(N4CCC[C@@H]4c4cc(F)ccc4F)nc23)n1 [I-167] | > 500
Fc1ccc(F)c([C@H]2CCCN2c2ccn3ncc(-n4cncn4)c3n2)c1 [I-168] | < 10
CC(C)(O)c1cnn(-c2cnn3ccc(N4CCC[C@@H]4c4cc(F)ccc4F)nc23)c1 [I-169] | < 10
NC(=O)c1cnn(-c2cnn3ccc(N4CCC[C@@H]4c4cc(F)ccc4F)nc23)c1 [I-173, (R)-1-(5-(2-(2,5-difluorophenyl)pyrrolidin-1-yl)pyrazolo[1,5-a]pyrimidin-3-yl)-1H-pyrazole-4-carboxamide] | < 10
CP(C)(=O)c1cnn(-c2cnn3ccc(N4CCC[C@@H]4c4cc(F)ccc4F)nc23)c1 [I-174, (R)-(1-(5-(2-(2,5-difluorophenyl)pyrrolidm-1-yl)pyrazolo[1,5-a]pyrimidin-3-yl)-1H-pyrazol-4-yl)dimethylphosphine-oxide] | < 10
Fc1ccc(F)c([C@H]2CCCN2c2ccn3ncc(-n4cc(C(F)F)cn4)c3n2)c1 [I-176, (R)-3-(4-(difluor®methyl)-1H-pyrazol-1-yl)-5-(2-(2,5-difluorophenyl)pyrrolidin-˜yl)pyrazolo[1,5-a]pyriniidine] | < 10
CCP(=O)(CC)c1cnn(-c2cnn3ccc(N4CCC[C@@H]4c4cc(F)ccc4F)nc23)c1 [I-177] | < 10
Fc1ccc(F)c([C@H]2CCCN2c2ccn3ncc(-n4cc(OC5COC5)cn4)c3n2)c1 [I-179] | < 10
COCCOCc1cnn(-c2cnn3ccc(N4CCC[C@@H]4c4cc(F)ccc4F)nc23)c1 [I-180, (R)-5-(2-(2,5-difluerophenyl)pyrrolidin-1-yl)-3-(4-((2-methoxyethoxy)methyl)-1H-pyrazol-1-yl)pyrazolo[1,5-a]pyrimidine] | < 10
CS(=O)(=O)c1cnn(-c2cnn3ccc(N4CCC[C@@H]4c4cc(F)ccc4F)nc23)c1 [I-181, (R)-5-(2-(2,5-difluorophenyl)pyrrolidin-1-yl)-3-(4-(methylsulfonyl)-1H-pyrazoI-1-yl)pyrazolo[1,5-a]pyrimidine] | < 10
Cc1cnn(-c2cnn3ccc(N4CCC[C@@H]4c4ncccc4F)nc23)c1 [I-182, (R)-5-(2-(3-fluoropyridin-2-yl)pyrrolidin-1-yl)-3-(4-methyl-1H-pyrazol-1-yl)pyrazolo[1,5-a] pyrimidine] | < 10
Fc1ccc(F)c([C@H]2CCCN2c2ccn3ncc(-n4cc5c(n4)CCOC5)c3n2)c1 [I-183, (R)-2-(5-(2-(2,5-difluorophenyl)pyrrolidin-1-yl)pyrazolo[1,5-a]pyrimidin-3-yl)-2,4,6,7-tetrahydropyrano[4,3-c]pyrazole] | < 10
Fc1ccc(F)c([C@H]2CCCN2c2ccn3ncc(-n4ncc5c4CCOC5)c3n2)c1 [I-184, (R)-1-(5-(2-(2,5-difluorophenyl)pyrrolidin-1-yl)pyrazolo[1,5-a]pyrimidin-3-yl)-1,4,6,7-tetrahydropyrano[4,3-c]pyrazole] | < 10
O=C(c1cnn(-c2cnn3ccc(N4CCC[C@@H]4c4cc(F)ccc4F)nc23)c1)N1CCOCC1 [I-185, (R)-(1-(5-(2-(2,5-difluoropheiiyl)pyrrolidin-1-yl)pyrazolo[la]pyrimidin-3-yl)-1H-pyrazol-4-yl)(morpholino)methanone] | < 10
CN(C)Cc1cnn(-c2cnn3ccc(N4CCC[C@@H]4c4cc(F)ccc4F)nc23)c1 [I-186, (R)-1-(1-(5-(2-(2,5-difluor®phenyl)pyrrolidin-1-yl)pyrazolo[1,5-a]pyrimidin-3-yl)-1H-pyrazol-4-yl)-N,N-dimethylmethanamine] | < 10
Fc1ccc(F)c([C@H]2CCCN2c2ccn3ncc(-n4cc(C5CCOCC5)cn4)c3n2)c1 [I-187, (R)-5-(2-(2,5-difluorophenyi)pyrrolidin-1-yl)-3-(4-(tetrahydro-2H-pyran-4-yl)-1H-pyrazol-1-yl)pyrazolo[1,5-a]pyrimidine] | < 10
Fc1cccnc1[C@H]1CCCN1c1ccn2ncc(-n3cc(-c4ccccc4)cn3)c2n1 [I-192] | < 10
Fc1ccc(F)c([C@H]2CCCN2c2ccn3ncc(-n4cc(-c5ccccc5)cn4)c3n2)n1 [I-193] | < 10

More lines, now with the values ahead:

IC50 [nM] | SMILES
< 10 | Cc1cnn(-c2cnn3ccc(N4CCC[C@@H]4c4cc(F)ccc4F)nc23)c1 [I-148]
< 10 | Fc1ccc(F)c([C@H]2CCCN2c2ccn3ncc(-n4cc(-c5ccccc5)cn4)c3n2)c1 [I-149]
< 10 | Fc1ccc(F)c([C@H]2CCCN2c2ccn3ncc(-n4cc(-c5cnccn5)cn4)c3n2)c1 [I-153]
< 10 | OCc1cnn(-c2cnn3ccc(N4CCC[C@@H]4c4cc(F)ccc4F)nc23)c1 [I-155]
< 10 | Cn1cc(-c2cnn(-c3cnn4ccc(N5CCC[C@@H]5c5cc(F)ccc5F)nc34)c2)cn1 [I-158]
< 10 | Fc1ccc(F)c([C@H]2CCCN2c2ccn3ncc(-n4cc(-c5cccnc5)cn4)c3n2)c1 [I-159]
< 10 | Fc1ccc(F)c([C@H]2CCCN2c2ccn3ncc(-n4cc(-c5ccncc5)cn4)c3n2)c1 [I-160]
< 10 | COc1cncc(-c2cnn(-c3cnn4ccc(N5CCC[C@@H]5c5cc(F)ccc5F)nc34)c2)c1 [I-161]
< 10 | Fc1ccc(F)c([C@H]2CCCN2c2ccn3ncc(-n4cc(-c5ccsc5)cn4)c3n2)c1 [I-162]
< 10 | Fc1ccc(F)c([C@H]2CCCN2c2ccn3ncc(-n4cc(-c5cncnc5)cn4)c3n2)c1 [I-163]
< 10 | Cc1ncc(-c2cnn(-c3cnn4ccc(N5CCC[C@@H]5c5cc(F)ccc5F)nc34)c2)s1 [I-164]
< 10 | Cn1ccc(-c2cnn(-c3cnn4ccc(N5CCC[C@@H]5c5cc(F)ccc5F)nc34)c2)cc1=O [I-165]
< 10 | N#Cc1cnn(-c2cnn3ccc(N4CCC[C@@H]4c4cc(F)ccc4F)nc23)c1 [I-170, (R)-1-(5-(2-(2,5-difluorophenyl)pyrrolidin-1-yl)pyrazolo[J5-a]pyrimidin-3-yl)-1H-pyrazole-4-carbonitrile]
< 10 | Fc1ccc(F)c([C@H]2CCCN2c2ccn3ncc(-n4cc(-c5cn[nH]c5)cn4)c3n2)c1 [I-171]
< 10 | COc1cnn(-c2cnn3ccc(N4CCC[C@@H]4c4cc(F)ccc4F)nc23)c1 [I-172]
< 10 | Fc1ccc(F)c([C@H]2CCCN2c2ccn3ncc(-n4cc(C5=CCOCC5)cn4)c3n2)c1 [I-175, (R)-5-(2-(2,5-difluorophenyl)pyrrolidin-1-yl)-3-(4-(3,6-dihydro-2H-pyran-4-yl)-1H-pyrazol-1-yl)pyrazolo[1,5-a]pyrimidine]
< 10 | Cc1nnc(-c2cnn(-c3cnn4ccc(N5CCC[C@@H]5c5cc(F)ccc5F)nc34)c2)o1 [I-178, (R)-2-(1-(5-(2-(2,5-difluorophenyl)pyrrolidin-1-yl)pyrazolo[1,5-a]pyrimidin-3-yl)-1H-pyrazol-4-yl)-5-methyl-1,3,4-oxadiazole]
< 10 | Fc1ccc(F)c([C@H]2CCCN2c2ccn3ncc(-n4cc(C5=CCOC5)cn4)c3n2)c1 [I-188]
< 10 | Fc1ccc(F)c([C@H]2CCCN2c2ccn3ncc(-n4cc(-c5ccoc5)cn4)c3n2)c1 [I-189]
< 10 | Fc1cncc(-c2cnn(-c3cnn4ccc(N5CCC[C@@H]5c5cc(F)ccc5F)nc34)c2)c1 [I-190]
< 10 | N#Cc1cncc(-c2cnn(-c3cnn4ccc(N5CCC[C@@H]5c5cc(F)ccc5F)nc34)c2)c1 [I-191]
< 10 | Fc1ccc(F)c([C@H]2CCCN2c2ccn3ncc(-n4cc(-c5cccnc5F)cn4)c3n2)c1 [I-194]
